Assay results published in the supplement of paper PMC8967900.

Assays:
Assay in all cases: selective drug sensitivity score (sDSS, relative to normal bone marrow) (sDSS (score)); higher = more potent and effective on the cell line relative to normal bone marrow cells
Details in all cases: 72 h
[1] = test system: KARPAS-45
[2] = test system: PEER
[3] = test system: COG-LL-355h
[4] = test system: MHH-CALL-4
[5] = test system: RCH-ACV
[6] = test system: CCRF-CEM
[7] = test system: COG-LL-402h
[8] = test system: TMD5
[9] = test system: RPMI-8402
[10] = test system: NALL-1
[11] = test system: JURKAT
[12] = test system: MOLT-14
[13] = test system: MN-60
[14] = test system: COG-LL-317
[15] = test system: KASUMI-9
[16] = test system: COG-LL-394h
[17] = test system: LC4-1
[18] = test system: KASUMI-10
[19] = test system: HAL-01
[20] = test system: MHH-CALL-3
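Note: ALL cell lines in 384-well plates, five doses spanning 10,000-fold, each plate scaled between vehicle and 100 µmol/L benzalkonium chloride controls, sDSS an adapted area-under-curve metric.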

Row | Compound | selective drug sensitivity score [1] | selective drug sensitivity score [2] | selective drug sensitivity score [3] | selective drug sensitivity score [4] | selective drug sensitivity score [5] | selective drug sensitivity score [6] | selective drug sensitivity score [7] | selective drug sensitivity score [8] | selective drug sensitivity score [9] | selective drug sensitivity score [10] | selective drug sensitivity score [11] | selective drug sensitivity score [12] | selective drug sensitivity score [13] | selective drug sensitivity score [14] | selective drug sensitivity score [15] | selective drug sensitivity score [16] | selective drug sensitivity score [17] | selective drug sensitivity score [18] | selective drug sensitivity score [19] | selective drug sensitivity score [20]
1 | Nc1nc(F)nc2c1ncn2[C@@H]1O[C@H](CO)[C@@H](O)[C@@H]1O [Fludarabine] (top concentration 10000 nM) | -10.3 | -9.3 | 5.1 | 8.3 | 5.9 | 2.3 | 8 | -10.6 | -3.6 | 2.3 | -5.5 | 4.3 | -4.5 | 3.3 | 6 | -10.6 | 6 | -0.8 | 4 | 7.5
2 | COc1cc([C@@H]2c3cc4c(cc3[C@@H](O[C@@H]3O[C@@H]5CO[C@@H](c6cccs6)O[C@H]5[C@H](O)[C@H]3O)[C@H]3COC(=O)[C@H]23)OCO4)cc(OC)c1O [Teniposide] (top concentration 10000 nM) | 0 | 0 | 0 | 0 | 0 | 0 | 0.1 | 0 | 0 | 0 | 0 | 0 | 0 | 0 | 0 | 0 | 0 | 0 | 0 | 0
3 | CC(C)(C#N)c1cc(Cn2cncn2)cc(C(C)(C)C#N)c1 [Anastrozole] (top concentration 10000 nM) | 0 | 0 | 0 | 0 | 0 | 0 | 0 | 0.6 | 0 | 0 | 0 | 0 | 0 | 0 | 0 | 0 | 0 | 0 | 0 | 0
4 | O[C@H]1CC[C@H](Nc2ncc3nc(Nc4c(F)cc(F)cc4F)n([C@H]4CCOC4)c3n2)CC1 [Tanzisertib] (top concentration 10000 nM) | 0 | 0 | 0.8 | 0.2 | 0 | 0 | 0 | 0 | 0 | 0 | 0 | 0 | 0 | 0 | 0 | 0 | 0 | 0 | 0 | 0
5 | CS(=O)(=O)N1CCN(Cc2cc3nc(-c4cccc5[nH]ncc45)nc(N4CCOCC4)c3s2)CC1 [Pictilisib] (top concentration 10000 nM) | 6.36 | -2.24 | 12 | 9.26 | 26.2 | 5.36 | 12.9 | 2.56 | 6.26 | -0.64 | 0.36 | -2.04 | 2.96 | -0.94 | 10.1 | -0.74 | 0.16 | 3.96 | 14.4 | 10.6
6 | Nc1nc(OCc2cc(Br)cs2)c2[nH]cnc2n1 [Lomeguatrib] (top concentration 10000 nM) | 0 | 0 | 1 | 0 | 0.8 | 0 | 0 | 0 | 0 | 0 | 0 | 0 | 0 | 0 | 0 | 0 | 0.8 | 0 | 0 | 0
7 | CNC(=O)CN1CCC(Oc2cc3c(Nc4cccc(Cl)c4F)ncnc3cc2OC)CC1 [Sapitinib] (top concentration 1000 nM) | 0 | 0 | 0 | 0 | 0 | 0 | 0 | 0 | 0 | 0 | 0 | 0 | 0 | 0 | 0 | 0 | 0 | 0 | 0 | 0.1
8 | CCc1c2c(nc3ccc(O)cc13)-c1cc3c(c(=O)n1C2)COC(=O)[C@]3(O)CC [SN-38] (top concentration 10000 nM) | 3.98 | 12.8 | 14.7 | 19.7 | 27.6 | 27.6 | 21.1 | 18.3 | 25.4 | 24.4 | 22.7 | 28 | 7.28 | 27.6 | 23.5 | 13.8 | 27.1 | 18.9 | 21.8 | 16.2
9 | Nc1ccn([C@@H]2O[C@H](CO)[C@@H](O)[C@@H]2O)c(=O)n1 [Cytarabine] (top concentration 10000 nM) | -7.7 | 12.2 | 4.9 | 5.4 | 28.1 | 25.7 | 26.9 | -10 | 18.6 | 10.6 | 17.9 | 25.6 | 1.3 | 27.2 | 22.7 | -10 | 21 | 1.6 | 21.8 | 15.8
10 | Cc1cc(OCc2nnc(SC3CCCC3)n2-c2cccnc2)ccc1-c1ccc(S(C)(=O)=O)cc1 [NMS-873] (top concentration 10000 nM) | 11.4 | 22.9 | 4.56 | 6.96 | 11.7 | 1.46 | 2.56 | 2.26 | 21.3 | 3.26 | 26.5 | 7.16 | 12.1 | 0.16 | 1.26 | 14.6 | 4.76 | -0.14 | 1.06 | 6.06
11 | CCOC(=O)C1=CCCC[C@H]1S(=O)(=O)Nc1ccc(F)cc1Cl [Resatorvid] (top concentration 10000 nM) | 0 | 0 | 0 | 0 | 0 | 0 | 0.4 | 0 | 0 | 0 | 0 | 0 | 0 | 0 | 0 | 0 | 0 | 0 | 0 | 0
12 | O=C(c1cc(Cc2n[nH]c(=O)c3ccccc23)ccc1F)N1CCN(C(=O)C2CC2)CC1 [Olaparib] (top concentration 10000 nM) | 0.38 | 1.28 | 3.38 | 8.68 | 7.38 | 3.78 | 4.38 | 4.48 | -0.02 | 1.28 | 1.58 | 10.4 | -2.42 | 13 | 4.98 | -1.32 | 2.68 | 2.88 | 4.88 | 21.9
13 | CCn1c(-c2nonc2N)nc2cnc(Oc3cccc(NC(=O)c4ccc(OCCN5CCOCC5)cc4)c3)cc21 (top concentration 10000 nM) | 15.2 | 16.6 | -2.34 | 10.4 | 17.1 | 15.8 | 7.66 | 6.36 | 7.66 | 8.46 | 3.76 | 2.46 | -3.54 | 7.46 | 11.6 | 1.56 | 17 | -2.74 | 9.96 | -2.34
14 | CCN(CC)C(=S)SSC(=S)N(CC)CC [Disulfiram(+CuCl2)] (top concentration 50000 nM) | -2.12 | -2.12 | 1.48 | 3.38 | 5.38 | -2.12 | -0.32 | -2.12 | -2.12 | 16.1 | -2.12 | -2.02 | -2.12 | -2.12 | 2.28 | -1.02 | 7.38 | -1.52 | 16.3 | 1.78
15 | Oc1nc(-c2ccc(C(F)(F)F)cc2)nc2c1CSCC2 [XAV939] (top concentration 10000 nM) | -0.14 | 0.96 | 0.46 | -0.14 | 0.06 | -0.14 | 0.16 | -0.14 | -0.14 | -0.14 | -0.14 | -0.14 | -0.14 | -0.14 | -0.14 | 0.36 | 0.56 | -0.14 | -0.14 | -0.14
16 | CO[C@H]1C[C@@H]2CC[C@@H](C)[C@@](O)(O2)C(=O)C(=O)N2CCCC[C@H]2C(=O)O[C@H]([C@H](C)C[C@@H]2CC[C@@H](OC(=O)C(C)(CO)CO)[C@H](OC)C2)CC(=O)[C@H](C)/C=C(\C)[C@@H](O)[C@@H](OC)C(=O)[C@H](C)C[C@H](C)/C=C/C=C/C=C/1C [Temsirolimus] (top concentration 100 nM) | 2.26 | 7.16 | -2.54 | -3.54 | 20.8 | 7.76 | 4.66 | -5.04 | -1.04 | -5.04 | -0.54 | -4.24 | 2.46 | 3.96 | 9.06 | -5.04 | 3.46 | -5.04 | -0.74 | 7.36
17 | COC(=O)c1ccc2c(c1)NC(=O)/C2=C(\Nc1ccc(N(C)C(=O)CN2CCN(C)CC2)cc1)c1ccccc1 [Nintedanib] (top concentration 10000 nM) | 0.54 | 5.94 | -0.16 | -1.66 | 3.64 | -1.46 | 5.14 | 0.84 | 1.14 | -2.76 | -4.86 | 1.64 | -6.36 | -1.76 | -1.26 | 2.14 | -4.36 | 14.1 | 3.34 | -0.26
18 | COc1cccc2c1C(=O)c1c(O)c3c(c(O)c1C2=O)C[C@@](O)(C(C)=O)C[C@@H]3O[C@H]1C[C@H](N)[C@H](O)[C@H](C)O1 [Daunorubicin] (top concentration 1000 nM) | -0.34 | -3.84 | 5.06 | 7.46 | 12.6 | 9.16 | 15.8 | 1.86 | 8.96 | -4.04 | 2.96 | 9.66 | -0.34 | 14.8 | 7.06 | 8.66 | 6.36 | 9.06 | -2.24 | 16.4
